From PubChem BioAssay (NCI)
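Compound exposure: 48 hours, 5 concentrations, 96-well plates. The concentration for 50% growth inhibition is given as GI50. TGI is the concentration that stops growth completely.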

What was measured:
Test in all cases: NCI anticancer screen, dose series, 48 h; in the data active = GI50 below about 0.43 µM; inactive = the rest
NCI-H460 lung = test system: NCI-H460 lung
EKVX NSCLC = test system: EKVX NSCLC
MDA-MB-435 = test system: MDA-MB-435
MOLT-4 leukemia = test system: MOLT-4 leukemia
SK-OV-3 ovarian = test system: SK-OV-3 ovarian
M14 melanoma = test system: M14 melanoma
HS 578T breast = test system: HS 578T breast
SW-620 colon = test system: SW-620 colon
KM12 colon = test system: KM12 colon
SF-268 CNS = test system: SF-268 CNS
786-0 renal = test system: 786-0 renal
OVCAR-4 ovarian = test system: OVCAR-4 ovarian
PC-3 prostate = test system: PC-3 prostate
BT-549 breast = test system: BT-549 breast
SNB-19 CNS = test system: SNB-19 CNS
MDA-MB-231 breast = test system: MDA-MB-231 breast
OVCAR-8 ovarian = test system: OVCAR-8 ovarian
OVCAR-3 ovarian = test system: OVCAR-3 ovarian
DU-145 prostate = test system: DU-145 prostate
SK-MEL-5 melanoma = test system: SK-MEL-5 melanoma
RXF 393 renal = test system: RXF 393 renal
SF-295 CNS = test system: SF-295 CNS
NCI-H23 lung = test system: NCI-H23 lung
HCC-2998 colon = test system: HCC-2998 colon
RPMI-8226 leukemia = test system: RPMI-8226 leukemia
HCT-15 colon = test system: HCT-15 colon
HL-60(TB) leukemia = test system: HL-60(TB) leukemia
A549 NSCLC = test system: A549 NSCLC
IGROV1 ovarian = test system: IGROV1 ovarian
UACC-62 melanoma = test system: UACC-62 melanoma
T-47D breast = test system: T-47D breast
K-562 leukemia = test system: K-562 leukemia
MALME-3M melanoma = test system: MALME-3M melanoma
NCI-H226 lung = test system: NCI-H226 lung
SN12C renal = test system: SN12C renal
A498 renal = test system: A498 renal
SR leukemia = test system: SR leukemia
UO-31 renal = test system: UO-31 renal
HOP-92 NSCLC = test system: HOP-92 NSCLC
LOX IMVI melanoma = test system: LOX IMVI melanoma
SF-539 CNS = test system: SF-539 CNS
U251 CNS = test system: U251 CNS
UACC-257 melanoma = test system: UACC-257 melanoma
OVCAR-5 ovarian = test system: OVCAR-5 ovarian
ACHN renal = test system: ACHN renal
HOP-62 NSCLC = test system: HOP-62 NSCLC
HT29 colon = test system: HT29 colon
CCRF-CEM leukemia = test system: CCRF-CEM leukemia
TK-10 renal = test system: TK-10 renal
SNB-75 CNS = test system: SNB-75 CNS
COLO 205 colon = test system: COLO 205 colon
SK-MEL-2 melanoma = test system: SK-MEL-2 melanoma
SK-MEL-28 melanoma = test system: SK-MEL-28 melanoma
NCI-H522 lung = test system: NCI-H522 lung
HCT-116 colon = test system: HCT-116 colon
CAKI-1 renal = test system: CAKI-1 renal
MCF7 breast = test system: MCF7 breast
NCI/ADR-RES ovarian = test system: NCI/ADR-RES ovarian

O=C1C(Cl)=C(Nc2ccc3c(c2NC2=C(Cl)C(=O)c4ccccc4C2=O)C(=O)c2ccccc2C3=O)C(=O)c2ccccc21
3.72 µM: TGI (COLO 205 colon)
15 µM: TGI (KM12 colon)
8.9 µM: TGI (NCI-H226 lung)
4.61 µM: TGI (A549 NSCLC)
5.99 µM: TGI (T-47D breast)
9.05 µM: TGI (ACHN renal)
4.18 µM: TGI (EKVX NSCLC)
4.19 µM: TGI (HCT-15 colon)
4.1 µM: TGI (NCI-H23 lung)
7.81 µM: TGI (K-562 leukemia)
13.9 µM: TGI (SNB-75 CNS)
2.83 µM: TGI (BT-549 breast)
1.04 µM: TGI (MDA-MB-435)
4.2 µM: TGI (A498 renal)
1.47 µM: TGI (SK-MEL-5 melanoma)
22.2 µM: TGI (TK-10 renal)
8.54 µM: TGI (HT29 colon)
1.72 µM: TGI (MALME-3M melanoma)
2.97 µM: TGI (DU-145 prostate)
6.88 µM: TGI (HS 578T breast)
9.37 µM: TGI (RPMI-8226 leukemia)
2.9 µM: TGI (UACC-62 melanoma)
10.3 µM: TGI (SNB-19 CNS)
4.46 µM: TGI (SN12C renal)
17.5 µM: TGI (MOLT-4 leukemia)
9.79 µM: TGI (RXF 393 renal)
4.4 µM: TGI (OVCAR-5 ovarian)
7.03 µM: TGI (OVCAR-3 ovarian)
20.6 µM: TGI (SK-OV-3 ovarian)
24.7 µM: TGI (CCRF-CEM leukemia)
10.4 µM: TGI (LOX IMVI melanoma)
active: GI50 (MDA-MB-435) 0.346 µM | GI50 (SK-MEL-5 melanoma) 0.386 µM
4.25 µM: TGI (IGROV1 ovarian)
9.6 µM: TGI (786-0 renal) | TGI (OVCAR-8 ovarian)
8.07 µM: TGI (SF-539 CNS)
9.38 µM: TGI (U251 CNS)
10.7 µM: TGI (HCC-2998 colon)
12.9 µM: TGI (SF-268 CNS)
14 µM: TGI (HL-60(TB) leukemia)
8.61 µM: TGI (SK-MEL-28 melanoma)
2.99 µM: TGI (OVCAR-4 ovarian)
5.85 µM: TGI (NCI-H460 lung)
3.95 µM: TGI (UACC-257 melanoma)
9.01 µM: TGI (UO-31 renal)
6.33 µM: TGI (SK-MEL-2 melanoma)
8.7 µM: TGI (NCI-H522 lung)
2.29 µM: TGI (M14 melanoma)
3.2 µM: TGI (SF-295 CNS)
4.95 µM: TGI (HOP-92 NSCLC)
12.5 µM: TGI (PC-3 prostate)
inactive: GI50 (NCI-H460 lung) 1.86 µM | GI50 (EKVX NSCLC) 1.83 µM | GI50 (MOLT-4 leukemia) 3.25 µM | GI50 (SK-OV-3 ovarian) 6.52 µM | GI50 (M14 melanoma) 1.02 µM | GI50 (HS 578T breast) 2.1 µM | GI50 (SW-620 colon) 2.93 µM | GI50 (KM12 colon) 2.98 µM | GI50 (SF-268 CNS) 2.91 µM | GI50 (786-0 renal) 2.91 µM | GI50 (OVCAR-4 ovarian) 1.42 µM | GI50 (PC-3 prostate) 1.92 µM | GI50 (BT-549 breast) 1.36 µM | GI50 (SNB-19 CNS) 2.74 µM | GI50 (MDA-MB-231 breast) 1.67 µM | GI50 (OVCAR-8 ovarian) 2.72 µM | GI50 (OVCAR-3 ovarian) 1.78 µM | GI50 (DU-145 prostate) 1.57 µM | GI50 (RXF 393 renal) 2.97 µM | GI50 (SF-295 CNS) 1.38 µM | GI50 (NCI-H23 lung) 1.08 µM | GI50 (HCC-2998 colon) 3.26 µM | GI50 (RPMI-8226 leukemia) 1.66 µM | GI50 (HCT-15 colon) 1.62 µM | GI50 (HL-60(TB) leukemia) 2.36 µM | GI50 (A549 NSCLC) 1.95 µM | GI50 (IGROV1 ovarian) 1.62 µM | GI50 (UACC-62 melanoma) 1.3 µM | GI50 (T-47D breast) 2.19 µM | GI50 (K-562 leukemia) 2.75 µM | GI50 (MALME-3M melanoma) 0.505 µM | GI50 (NCI-H226 lung) 2.7 µM | GI50 (SN12C renal) 1.73 µM | GI50 (A498 renal) 2.02 µM | GI50 (SR leukemia) 1.42 µM | GI50 (UO-31 renal) 1.75 µM | GI50 (HOP-92 NSCLC) 2.03 µM | GI50 (LOX IMVI melanoma) 0.872 µM | GI50 (SF-539 CNS) 2.83 µM | GI50 (U251 CNS) 2.58 µM | GI50 (UACC-257 melanoma) 1.88 µM | GI50 (OVCAR-5 ovarian) 2.06 µM | GI50 (ACHN renal) 2.15 µM | GI50 (HOP-62 NSCLC) 2.25 µM | GI50 (HT29 colon) 3.12 µM | GI50 (CCRF-CEM leukemia) 2.48 µM | GI50 (TK-10 renal) 7.26 µM | GI50 (SNB-75 CNS) 4.35 µM | GI50 (COLO 205 colon) 1.69 µM | GI50 (SK-MEL-2 melanoma) 1.82 µM | GI50 (SK-MEL-28 melanoma) 2.87 µM | GI50 (NCI-H522 lung) 2.48 µM
10.6 µM: TGI (SW-620 colon)
5.68 µM: TGI (HOP-62 NSCLC)
7.87 µM: TGI (MDA-MB-231 breast)
> 100 µM: TGI (SR leukemia)

Cc1cc(Cl)ccc1Nc1nc(C(F)(F)F)ccc1C(=O)N/N=C/c1ccc(N(C)C)cc1
> 100 µM: TGI (HCT-116 colon) | TGI (NCI-H460 lung) | TGI (EKVX NSCLC) | TGI (MDA-MB-435) | TGI (MOLT-4 leukemia) | TGI (SK-OV-3 ovarian) | TGI (HS 578T breast) | TGI (SW-620 colon) | TGI (KM12 colon) | TGI (SF-268 CNS) | TGI (786-0 renal) | TGI (SNB-19 CNS) | TGI (MDA-MB-231 breast) | TGI (OVCAR-8 ovarian) | TGI (OVCAR-3 ovarian) | TGI (SK-MEL-5 melanoma) | TGI (NCI-H23 lung) | TGI (MCF7 breast) | TGI (HCC-2998 colon) | TGI (RPMI-8226 leukemia) | TGI (HCT-15 colon) | TGI (HL-60(TB) leukemia) | TGI (A549 NSCLC) | TGI (NCI/ADR-RES ovarian) | TGI (UACC-62 melanoma) | TGI (T-47D breast) | TGI (K-562 leukemia) | TGI (NCI-H226 lung) | TGI (SN12C renal) | TGI (A498 renal) | TGI (UO-31 renal) | TGI (LOX IMVI melanoma) | TGI (SF-539 CNS) | TGI (U251 CNS) | TGI (UACC-257 melanoma) | TGI (OVCAR-5 ovarian) | TGI (ACHN renal) | TGI (HOP-62 NSCLC) | TGI (HT29 colon) | TGI (TK-10 renal) | TGI (SNB-75 CNS) | TGI (COLO 205 colon) | TGI (SK-MEL-28 melanoma) | TGI (NCI-H522 lung)
inactive: GI50 (HCT-116 colon) 0.743 µM | GI50 (NCI-H460 lung) 1.57 µM | GI50 (EKVX NSCLC) 0.746 µM | GI50 (MDA-MB-435) 4.02 µM | GI50 (MOLT-4 leukemia) 2.22 µM | GI50 (SK-OV-3 ovarian) 2.19 µM | GI50 (M14 melanoma) 1.2 µM | GI50 (HS 578T breast) 2.7 µM | GI50 (SW-620 colon) 2.04 µM | GI50 (KM12 colon) 3.4 µM | GI50 (SF-268 CNS) 1.37 µM | GI50 (786-0 renal) 0.997 µM | GI50 (BT-549 breast) 0.624 µM | GI50 (SNB-19 CNS) 3.08 µM | GI50 (MDA-MB-231 breast) 1.37 µM | GI50 (OVCAR-8 ovarian) 2.83 µM | GI50 (OVCAR-3 ovarian) 0.563 µM | GI50 (DU-145 prostate) 0.915 µM | GI50 (SK-MEL-5 melanoma) 2.56 µM | GI50 (RXF 393 renal) 0.633 µM | GI50 (SF-295 CNS) 1.42 µM | GI50 (NCI-H23 lung) 3.92 µM | GI50 (MCF7 breast) 1.9 µM | GI50 (HCC-2998 colon) 1.43 µM | GI50 (RPMI-8226 leukemia) 2.94 µM | GI50 (HCT-15 colon) 0.481 µM | GI50 (HL-60(TB) leukemia) 1.44 µM | GI50 (A549 NSCLC) 3.86 µM | GI50 (IGROV1 ovarian) 2.03 µM | GI50 (NCI/ADR-RES ovarian) 2.21 µM | GI50 (UACC-62 melanoma) 2.29 µM | GI50 (T-47D breast) 1.2 µM | GI50 (K-562 leukemia) 1.93 µM | GI50 (NCI-H226 lung) 2.29 µM | GI50 (SN12C renal) 3.99 µM | GI50 (A498 renal) 2.59 µM | GI50 (SR leukemia) 0.872 µM | GI50 (UO-31 renal) 2.97 µM | GI50 (LOX IMVI melanoma) 0.7 µM | GI50 (SF-539 CNS) 5.87 µM | GI50 (U251 CNS) 1.42 µM | GI50 (UACC-257 melanoma) 4.97 µM | GI50 (OVCAR-5 ovarian) 2.4 µM | GI50 (ACHN renal) 2.57 µM | GI50 (HOP-62 NSCLC) 2.38 µM | GI50 (HT29 colon) 3.8 µM | GI50 (TK-10 renal) 1.03 µM | GI50 (SNB-75 CNS) 1.83 µM | GI50 (COLO 205 colon) 2.59 µM | GI50 (SK-MEL-28 melanoma) 3.81 µM | GI50 (NCI-H522 lung) 3.07 µM
6.78 µM: TGI (BT-549 breast)
8.86 µM: TGI (DU-145 prostate)
9.11 µM: TGI (IGROV1 ovarian)
8.75 µM: TGI (M14 melanoma)
active: GI50 (CAKI-1 renal) 0.404 µM
44.4 µM: TGI (RXF 393 renal)
8.52 µM: TGI (CAKI-1 renal)
6.79 µM: TGI (SR leukemia)
4.92 µM: TGI (SF-295 CNS)
